Source: PubChem BioAssay (NCI)
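Method: 48-hour compound exposure of cells in 96-well plates, five concentrations, linear interpolation of endpoints. TGI: concentration producing complete growth inhibition.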

Experiments:
Assay in all cases: NCI anticancer screen, dose series, 48 h
OVCAR-5 ovarian = tested on: OVCAR-5 ovarian
CCRF-CEM leukemia = tested on: CCRF-CEM leukemia
HCT-116 colon = tested on: HCT-116 colon
RXF 393 renal = tested on: RXF 393 renal
M19-MEL melanoma = tested on: M19-MEL melanoma
MOLT-4 leukemia = tested on: MOLT-4 leukemia
ACHN renal = tested on: ACHN renal
SNB-78 CNS = tested on: SNB-78 CNS
K-562 leukemia = tested on: K-562 leukemia
SK-MEL-5 melanoma = tested on: SK-MEL-5 melanoma
IGROV1 ovarian = tested on: IGROV1 ovarian
DMS 273 small cell lung = tested on: DMS 273 small cell lung
SW-620 colon = tested on: SW-620 colon
HOP-62 NSCLC = tested on: HOP-62 NSCLC
HOP-18 NSCLC = tested on: HOP-18 NSCLC
SNB-19 CNS = tested on: SNB-19 CNS
OVCAR-4 ovarian = tested on: OVCAR-4 ovarian
EKVX NSCLC = tested on: EKVX NSCLC
HL-60(TB) leukemia = tested on: HL-60(TB) leukemia
NCI-H23 lung = tested on: NCI-H23 lung
SR leukemia = tested on: SR leukemia
LOX IMVI melanoma = tested on: LOX IMVI melanoma
SN12C renal = tested on: SN12C renal
HT29 colon = tested on: HT29 colon
786-0 renal = tested on: 786-0 renal
HCT-15 colon = tested on: HCT-15 colon
RXF-631 renal = tested on: RXF-631 renal
TK-10 renal = tested on: TK-10 renal
HCC-2998 colon = tested on: HCC-2998 colon
SF-539 CNS = tested on: SF-539 CNS
SF-295 CNS = tested on: SF-295 CNS
SNB-75 CNS = tested on: SNB-75 CNS
MALME-3M melanoma = tested on: MALME-3M melanoma
HOP-92 NSCLC = tested on: HOP-92 NSCLC
OVCAR-8 ovarian = tested on: OVCAR-8 ovarian
NCI-H460 lung = tested on: NCI-H460 lung
M14 melanoma = tested on: M14 melanoma
A549 NSCLC = tested on: A549 NSCLC
A498 renal = tested on: A498 renal
CAKI-1 renal = tested on: CAKI-1 renal
KM20L2 colon = tested on: KM20L2 colon
UO-31 renal = tested on: UO-31 renal
KM12 colon = tested on: KM12 colon
COLO 205 colon = tested on: COLO 205 colon
LXFL 529 NSCLC = tested on: LXFL 529 NSCLC
UACC-62 melanoma = tested on: UACC-62 melanoma
SF-268 CNS = tested on: SF-268 CNS
NCI-H226 lung = tested on: NCI-H226 lung
SK-MEL-2 melanoma = tested on: SK-MEL-2 melanoma
UACC-257 melanoma = tested on: UACC-257 melanoma
OVCAR-3 ovarian = tested on: OVCAR-3 ovarian
DLD-1 colon = tested on: DLD-1 colon
NCI-H522 lung = tested on: NCI-H522 lung
U251 CNS = tested on: U251 CNS
RPMI-8226 leukemia = tested on: RPMI-8226 leukemia
XF 498 CNS = tested on: XF 498 CNS
SK-MEL-28 melanoma = tested on: SK-MEL-28 melanoma

## NCCCN(CCCN)CCCNCc1c2ccccc2c(CNCCCN(CCCN)CCCN)c2ccccc12
OVCAR-5 ovarian
  TGI: > 100 µM
CCRF-CEM leukemia
  TGI: > 100 µM
HCT-116 colon
  TGI: 47.9 µM
RXF 393 renal
  TGI: 45.2 µM
M19-MEL melanoma
  TGI: 20.4 µM
MOLT-4 leukemia
  TGI: 69.8 µM
ACHN renal
  TGI: 25.7 µM
SNB-78 CNS
  TGI: 79.9 µM
K-562 leukemia
  TGI: > 100 µM
SK-MEL-5 melanoma
  TGI: 17.9 µM
IGROV1 ovarian
  TGI: 28.1 µM
DMS 273 small cell lung
  TGI: 17 µM
SW-620 colon
  TGI: 32.5 µM
HOP-62 NSCLC
  TGI: 32.9 µM
HOP-18 NSCLC
  TGI: 20.7 µM
SNB-19 CNS
  TGI: 30.6 µM
OVCAR-4 ovarian
  TGI: 34 µM
EKVX NSCLC
  TGI: 28.4 µM
HL-60(TB) leukemia
  TGI: 38 µM
NCI-H23 lung
  TGI: 85.6 µM
SR leukemia
  TGI: > 100 µM
LOX IMVI melanoma
  TGI: 42 µM
SN12C renal
  TGI: 34.2 µM
HT29 colon
  TGI: 37.5 µM
786-0 renal
  TGI: 23.4 µM
HCT-15 colon
  TGI: 28.6 µM
RXF-631 renal
  TGI: 43.7 µM
TK-10 renal
  TGI: 23.1 µM
HCC-2998 colon
  TGI: 20.1 µM
SF-539 CNS
  TGI: 30.2 µM
SF-295 CNS
  TGI: 27.8 µM
SNB-75 CNS
  TGI: 34.3 µM
MALME-3M melanoma
  TGI: 22.4 µM
HOP-92 NSCLC
  TGI: 89.1 µM
OVCAR-8 ovarian
  TGI: 25.8 µM
NCI-H460 lung
  TGI: 29.2 µM
M14 melanoma
  TGI: 28.5 µM
A549 NSCLC
  TGI: > 100 µM
A498 renal
  TGI: 60.2 µM
CAKI-1 renal
  TGI: 32.7 µM
KM20L2 colon
  TGI: 47.8 µM
UO-31 renal
  TGI: > 100 µM
KM12 colon
  TGI: 14 µM
COLO 205 colon
  TGI: 22.5 µM
LXFL 529 NSCLC
  TGI: 22.6 µM
UACC-62 melanoma
  TGI: 21.5 µM
SF-268 CNS
  TGI: 57.7 µM
NCI-H226 lung
  TGI: > 100 µM
SK-MEL-2 melanoma
  TGI: 54.9 µM
UACC-257 melanoma
  TGI: 27.3 µM
OVCAR-3 ovarian
  TGI: 38.6 µM
DLD-1 colon
  TGI: 28.8 µM
NCI-H522 lung
  TGI: 26.1 µM
U251 CNS
  TGI: 33 µM
RPMI-8226 leukemia
  TGI: 19 µM
XF 498 CNS
  TGI: 38.1 µM
SK-MEL-28 melanoma
  TGI: 21.9 µM
